Results published in patent US20230048678A1, “ICAN DERIVATIVES FOR ANTIFUNGAL USE” (DEBRECENI EGYETEM, priority 2019, published 2023).
“Also recorded” adds a separate entry of the source.

Legend:
C. albicans isolate 3666 = assay: Murine model, kidney fungal burden; format: in vivo, BALB/c mice; conditions: immunosuppressed mice, 10^4 cfu/mouse iv
Protocol: During an independent in vivo experiment mice were infected intravenously with C. albicans isolate 3666. The infected mice were euthanized 2 or 6 days after infection (n=5 and 6 mice/time point, respectively), as disclosed herein, to determine the fungal burdens in the kidneys. Kidney burden was analyzed using a Kruskal-Wallis test with Dunn's posttest for multiple comparisons [Foldi R 2012, Kovacs R 2014]. Results of fungal burden experiments are shown on FIGS. 3b and c. […] It is well seen in […], that on day 6. the fungal burden increased by an order of magnitude (from −10^5 to −10^6) in the case of the untreated mice, while in the case of DIMICAN it remained the same as it was on day 2. The same is valid for AMB.
We used 10-12 week-old female BALB/c mice for all experiments. Mice were immunosuppressed using 150 mg/kg intraperitoneal (ip) cyclophosphamide dose (4 days prior to infection) and 100 mg/kg ip cyclophosphamide dose (1 day prior to infection; 2 and 5 days after infection) [Spellberg B, 2005]. All mice received ceftazidime (5 mg/day subcutaneously) from days 0 to 6 after infection. Mice were given food and water ad libitum and were monitored daily. The animals were maintained in accordance with the Guidelines for the Care and Use of Laboratory Animals, and the experiments were approved by the Animal Care Committee of the University of Debrecen, Debrecen, Hungary (permission no. 12/2014).
Mice were infected via the lateral tail vein with C. albicans 3666 bloodstream isolate. In the lethality (10 mice/group) and fungal tissue burden experiments (6 mice/group) the infectious doses were 3×10^4 and 10^4 cfu/mouse, respectively. These doses led to 100% and 0% mortality, respectively by day 6 after infection among untreated mice. Inoculum density was confirmed by plating serial dilutions onto Sabouraud dextrose agar (SDA) plates.
AMB (Fungizone, commercial preparation) and DIMICAN treatment in a 0.5-ml bolus was started 1 h after infection. The doses were 1 mg AMB and 5 mg DIMICAN (in olive oil/water (o/w) emulsion) per kg body weight. All antifungals were administered intraperitoneally once daily for 5 consecutive days.
Infected mice were euthanized 2 or 6 days after infection (n=6 mice/time point) to determine the fungal burden in the kidney. […] Aliquots of 0.1 ml of the undiluted and diluted homogenates were plated onto SDA, and the colony count was determined after 48 h. Colony-forming units (CFUs) were determined after 48 h of incubation at 37° C. and results were expressed as cfus/g tissue [Spellberg B, 2005]. […]
Survival effects were analyzed by the Kaplan—Meier log-rank test. Kidney burden was analysed using a Kruskal—Wallis test with Dunn's posttest for multiple comparisons [Foldi R 2012, Kovacs R 2014].

human cell cultures = conditions: from [Nagy M 2018, Nagy Z L; cited from earlier work
C. glabrata isolates = assay: CLSI M27-A3 broth microdilution on Candida isolates (Table 2); format: cell-based
Protocol: (§1) The tested C. albicans, C. tropicalis, C. parapsilosis, C. glabrata and C. krusei ATCC strains and clinical isolates are listed in Table 2. MICs were determined according to the CLSI M27-A3 [22]. Antifungal agents were dissolved in 100% DMSO and diluted further in RPMI-1640 (with L-glutamine but without bicarbonate) (Sigma, Budapest, Hungary), and buffered to pH 7.0 with 0.165 M morpholinopropanesulfonic acid (MOPS; Sigma, Budapest, Hungary). The final concentration ranges used for AMB and ICAN derivatives were 0.125 to 4 μg/ml and 0.04 to 20 μg/ml, respectively. Yeast cell suspensions were prepared in RPMI 1640 medium and were adjusted to give a final inoculum concentration of 0.5×10^3 to 2.5×10^3 cells/ml. MICs were read visually after 48-h incubation at 35° C. using the partial (50%) inhibition (for ICAN derivatives) (PI) and total inhibition (for AMB and ICAN derivatives) (TI) criteria. MICs were determined at least twice. For amphotericin B isolates with MIC values of ≤2 mg/L were considered wild-types. [Pfaller M A, 2012]

C. krusei isolates = assay: as above; format: cell-based
Protocol: as §1

C. albicans isolates = assay: as above; format: cell-based
Protocol: as §1

[C-]#[N+]c1cccc2c(N(C)C)cccc12 [DIMICAN, N,N-dimethyl-1-amino-5-isocyanonaphthalene]
effect on kidney fungal burden, six days after infection (C. albicans isolate 3666; 5 mg/kg DIMICAN or 1 mg/kg AMB ip once daily for 5 days, p<0.05 (AMB), p<0.001 (DIMICAN) vs control): efficient; also recorded: significantly lower fungal burden
effect on kidney fungal burden, two days after infection (C. albicans isolate 3666; 5 mg/kg DIMICAN or 1 mg/kg AMB ip once daily, P>0.05 vs control): no effect on fungal load
cytotoxic effect (human cell cultures): no cytotoxic effect
MICPI (C. glabrata isolates; isolate 14408): ≤0.04 µg/mL
MICTI (C. glabrata isolates; isolate 14408): 0.08 µg/mL
MICPI (C. glabrata isolates; isolate 14559): ≤0.04 µg/mL
MICTI (C. glabrata isolates; isolate 14559): 0.3 µg/mL
MICPI (C. glabrata isolates; isolate 22394): ≤0.04 µg/mL
MICTI (C. glabrata isolates; isolate 22394): 0.3 µg/mL
MICPI (C. glabrata isolates; isolate 23429): ≤0.04 µg/mL
MICTI (C. glabrata isolates; isolate 23429): 0.3 µg/mL
MICPI (C. glabrata isolates; isolate 23481): 0.08 µg/mL
MICTI (C. glabrata isolates; isolate 23481): 1.25 µg/mL
MICPI (C. glabrata isolates; isolate 27643): 0.08 µg/mL
MICTI (C. glabrata isolates; isolate 27643): 0.3 µg/mL
MICPI (C. glabrata isolates; isolate 28557): ≤0.04 µg/mL
MICTI (C. glabrata isolates; isolate 28557): 0.6 µg/mL
MICPI (C. glabrata isolates; isolate ATCC 90030): 0.15 µg/mL
MICTI (C. glabrata isolates; isolate ATCC 90030): 0.3 µg/mL
MICPI (C. krusei isolates; isolate 749): 0.08 µg/mL
MICTI (C. krusei isolates; isolate 749): 0.08 µg/mL
MICPI (C. krusei isolates; isolate 1853): 0.08 µg/mL
MICTI (C. krusei isolates; isolate 1853): 0.3 µg/mL
MICPI (C. krusei isolates; isolate 4364): ≤0.04 µg/mL
MICTI (C. krusei isolates; isolate 4364): 0.15 µg/mL
MICPI (C. krusei isolates; isolate 5029): ≤0.04 µg/mL
MICTI (C. krusei isolates; isolate 5029): 0.08 µg/mL
MICPI (C. krusei isolates; isolate 5072): 0.08 µg/mL
MICTI (C. krusei isolates; isolate 5072): 0.3 µg/mL
MICPI (C. krusei isolates; isolate 25504): 0.08 µg/mL
MICTI (C. krusei isolates; isolate 25504): 0.3 µg/mL
MICPI (C. krusei isolates; isolate 34987): ≤0.04 µg/mL
MICTI (C. krusei isolates; isolate 34987): 0.08 µg/mL
MICPI (C. krusei isolates; isolate ATCC 6258): 0.15 µg/mL
MICTI (C. krusei isolates; isolate ATCC 6258): 0.3 µg/mL
MICPI (C. albicans isolates; isolate 456): ≤0.04 µg/mL
MICTI (C. albicans isolates; isolate 456): 0.6 µg/mL
MICPI (C. albicans isolates; isolate 665): ≤0.04 µg/mL
MICTI (C. albicans isolates; isolate 665): 0.6 µg/mL
MICPI (C. albicans isolates; isolate 685): ≤0.04 µg/mL
MICTI (C. albicans isolates; isolate 685): 0.6 µg/mL
MICPI (C. albicans isolates; isolate 720): ≤0.04 µg/mL
MICTI (C. albicans isolates; isolate 720): 0.6 µg/mL
MICPI (C. albicans isolates; isolate 963): ≤0.04 µg/mL
MICTI (C. albicans isolates; isolate 963): 0.6 µg/mL
MICPI (C. albicans isolates; isolate 1544): ≤0.04 µg/mL
MICTI (C. albicans isolates; isolate 1544): 0.6 µg/mL
MICPI (C. albicans isolates; isolate 3666): ≤0.04 µg/mL
MICTI (C. albicans isolates; isolate 3666): 0.6 µg/mL
MICPI (C. albicans isolates; isolate 8658): ≤0.04 µg/mL
MICTI (C. albicans isolates; isolate 8658): 0.6 µg/mL
MICPI (C. albicans isolates; isolate ATCC 10231): ≤0.04 µg/mL
MICTI (C. albicans isolates; isolate ATCC 10231): 0.3 µg/mL
